Target: Stromelysin (Homo sapiens, UniProt P08254)
Experiment: Stromelysin inhibition, in vitro particle concentration fluorescence assay (TABLE 1, MMP Inhibition Constants)
Type: biochemical
Settings: fluorescein/biotin substrate, MMP buffer pH 7.5, room temperature, 15 min preincubation with enzyme, 1-3 h with substrate
Procedure: Inhibitory activity is evaluated in one or more of the MMP enzymes (stromelysin, gelatinase, and collagenase) in vitro using particle concentration fluorescence assay. An inhibitor binds to MMP enzymes which prevents the degradation of a substrate by stromelysin, gelatinase, or collagenase. The substrate has attached to it a fluorescein and a biotin moiety. The intact substrate then binds to an avidin-coated particle via the biotin moiety. Once the particle is washed and dried, a fluorescent signal is generated since the fluorescent group is attached to the particle. Without an inhibitor present, the substrate is degraded by MMP enzymes and the fluorescein group is removed, therefore, no fluorescent signal can be detected. Testing compounds are dissolved in DMSO to the desired concentration, then the solutions are diluted to 1:5 with MMP buffer (50 mM Tris-HCl, pH 7.5; 150 mM NaCl; 0.02% NaN3). Serial two-fold dilutions of each compound are prepared. A concentrated, activated enzyme solution is transferred into each plate of the testing compounds, and the mixture is incubated at room temperature for 15 minutes. Thawed MMP substrate is then added into all plates, and the plates are incubated in the dark for 1-3 hours at room temperature. At this point, the substrate mixture is mixed with 0.1% avidin-coated polystyrene particles. After 15 minutes, the fluorescence values are measured following filtration and washing of the beads. Ki values are then calculated.

Stromelysin, sequence (P08254 100-477): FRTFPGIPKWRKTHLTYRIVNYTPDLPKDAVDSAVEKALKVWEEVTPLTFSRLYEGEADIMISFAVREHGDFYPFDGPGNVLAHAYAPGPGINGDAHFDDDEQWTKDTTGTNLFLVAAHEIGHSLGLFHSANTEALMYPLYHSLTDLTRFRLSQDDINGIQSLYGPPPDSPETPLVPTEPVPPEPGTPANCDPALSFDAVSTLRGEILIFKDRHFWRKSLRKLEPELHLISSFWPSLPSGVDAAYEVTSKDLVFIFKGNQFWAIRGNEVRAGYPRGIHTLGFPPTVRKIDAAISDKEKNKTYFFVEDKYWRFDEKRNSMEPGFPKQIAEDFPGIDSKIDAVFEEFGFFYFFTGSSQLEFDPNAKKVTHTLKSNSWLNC

Row | SMILES | Ki [µM]
1 | CC(C)(C)OC(=O)N[C@@H](Cc1c(F)c(F)c(F)c(F)c1F)C(=O)Nc1n[nH]c(=S)s1 [Example 28, (S)-[2-[(4,5-dihydro-5-thioxo-1,3,4-thiadiazol-2-yl)amino]-2-oxo-1-[(pentafluorophenyl)methyl]ethyl]carbamic acid 1,1-dimethylethyl ester] | 2.22
2 | O=C(NCCC[C@H](NC(=O)OCc1ccccc1)C(=O)Nc1n[nH]c(=S)s1)OCc1ccccc1 [Example 31, (S)-[1-[[(4,5-dihydro-5-thioxo-1,3,4-thiadiazol-2-yl)amino]carbonyl]-1,4-butanediyl]bis carbamic acid bis(phenylmethyl) ester] | 2.81
3 | O=C(N[C@@H](Cc1c[nH]c2ccccc12)C(=O)Nc1n[nH]c(=S)s1)OCc1ccccc1 [Example 33, (S)-[2-[(4,5-dihydro-5-thioxo-1,3,4-thiadiazol-2-yl)amino]-1-(1H-indol-3-yl-methyl)-2-oxoethyl]-carbamic acid, phenylmethyl ester] | 10.2
4 | CC(C)C[C@H](NC(=O)OCc1ccccc1)C(=O)Nc1n[nH]c(=S)s1 [Example 35, (S)-[1-[[(4,5-dihydro-5-thioxo-1,3,4-thiadiazol-2-yl)amino]carbonyl]-3-methylbutyl]carbamic acid phenylmethyl ester] | 2.22
5 | CC(C)[C@H](NC(=O)OCc1ccccc1)C(=O)Nc1n[nH]c(=S)s1 [Example 36, (S)-[1-[[(4,5-dihydro-5-thioxo-1,3,4-thiadiazol-2-yl)amino]carbonyl]-2-methylpropyl]carbamic acid phenylmethyl ester] | 1.16
6 | CC(C)(C)[C@H](NC(=O)OCC1c2ccccc2-c2ccccc21)C(=O)Nc1n[nH]c(=S)s1 [Example 37, (S)-[1-[[(4,5-dihydro-5-thioxo-1,3,4-thiadiazol-2-yl)amino]carbonyl]-2,2-dimethylpropyl]carbamic acid 9H-fluoren-9-yl-methyl ester] | 0.12
7 | CC(C)(C)C(CC(=O)Nc1n[nH]c(=S)s1)NC(=O)OCc1ccccc1 (centres unmarked) [Example 40, [3-[(4,5-dihydro-5-thioxo-1,3,4-thiadiazol-2-yl)amino]-3-oxo-1-(1,1-dimethylethyl)propyl]carbamic acid phenylmethyl ester] | 11.1
8 | O=C(CC(NC(=O)OCc1ccccc1)c1ccccc1)Nc1nnc(S)s1 (centres unmarked) [Example 41, [3-[(4,5-dihydro-5-thioxo-1,3,4-thiadiazol-2-yl)amino]-3-oxo-1-phenylpropyl]carbamic acid phenylmethyl ester] | 0.4
9 | O=C(CC(NC(=O)Cc1ccccc1)c1ccccc1)Nc1n[nH]c(=S)s1 (stereo not drawn) [Example 43, N-(4,5-dihydro-5-thioxo-1,3,4-thiadiazol-2-yl)-β-[(phenylacetyl)amino]benzenepropanamide] | 0.655
10 | CC(C)(C)OC(=O)NC(CC(=O)Nc1n[nH]c(=S)s1)c1ccccc1 (centres unmarked) [Example 45, [3-[(4,5-dihydro-5-thioxo-1,3,4-thiadiazol-2-yl)amino]-3-oxo-1-phenylpropyl]carbamic acid 1,1-dimethylethyl ester] | 0.72
11 | COCC(=O)NC(CC(=O)Nc1n[nH]c(=S)s1)c1ccccc1 (stereo not drawn) [Example 47, N-(4,5-dihydro-5-thioxo-1,3,4-thiadiazol-2-yl)-β-[(methoxyacetyl)amino]benzenepropanamide] | 1.36
12 | O=C(CC(NC(=O)COCc1ccccc1)c1ccccc1)Nc1n[nH]c(=S)s1 (stereo not drawn) [Example 49, N-(4,5-dihydro-5-thioxo-1,3,4-thiadiazol-2-yl)-β-[(phenylmethoxyacetyl)amino]benzenepropanamide] | 0.84
13 | O=C(C[C@H](NC(=O)OCc1ccccc1)c1ccccc1)Nc1n[nH]c(=S)s1 [Example 51, (S)-[3-[(4,5-dihydro-5-thioxo-1,3,4-thiadiazol-2-yl)amino]-3-oxo-1-phenylpropyl]carbamic acid phenylmethyl ester] | 1.5
14 | CC(C)C[C@@H](CC(=O)Nc1n[nH]c(=S)s1)NC(=O)OCc1ccccc1 [Example 54, (S)-[1-[2-[[4,5-dihydro-5-thioxo-1,3,4-thiadiazol-2-yl)amino]-2-oxoethyl]-3-methylbutyl]carbamic acid phenylmethyl ester] | 1.2
15 | CNC(=O)C(C(=O)Nc1n[nH]c(=S)s1)C(C)(C)C (stereo not drawn) [Example 59, N-methyl-α-[[(4,5-dihydro-5-thioxo-1,3,4-thiadiazol-2-yl)amino]carbonyl]-3,3-dimethylbutanamide] | 4.3

Continued by falling Ki, values first:

Row | Ki [µM] | SMILES
16 | 15 | O=C(N[C@H]1CCCC[C@H]1C(=O)Nc1n[nH]c(=S)s1)OCC1c2ccccc2-c2ccccc21 [Example 53, (1S-cis-)-[2-[[(4,5-dihydro-5-thioxo-1,3,4-thiadiazol-2-yl)amino]carbonyl]cyclohexyl]carbamic acid 9H-fluoren-9-yl-methyl ester]
17 | 6.09 | O=C(N[C@@H](Cc1ccccc1)C(=O)Nc1n[nH]c(=S)s1)OCc1ccccc1 [Example 34, (S)-[2-[(4,5-dihydro-5-thioxo-1,3,4-thiadiazol-2-yl)amino]-2-oxo-1-(phenylmethyl)ethyl]carbamic acid phenylmethyl ester]
18 | 5 | CCOC(=O)C(C(=O)Nc1n[nH]c(=S)s1)C(C)(C)C (stereo not drawn) [Example 58, ethyl α-[[(4,5-dihydro-5-thioxo-1,3,4-thiadiazol-2-yl)amino]carbonyl]-3,3-dimethylbutanoate]
19 | 4.05 | CCOC(=O)C(Cc1ccccc1)C(=O)Nc1n[nH]c(=S)s1 (stereo not drawn) [Example 57, ethyl α-[[(4,5-dihydro-5-thioxo-1,3,4-thiadiazol-2yl)amino]carbonyl]benzenepropanoate]
20 | 2.27 | O=C(NCC(C(=O)Nc1n[nH]c(=S)s1)c1ccccc1)OCc1ccccc1 (centres unmarked) [Example 38, [3-[(4,5-dihydro-5-thioxo-1,3,4-thiadiazol-2-yl)amino]-3-oxo-2-phenylpropyl]carbamic acid phenylmethyl ester]
21 | 1.47 | CC(C)(C)OC(=O)N1CCC[C@H]1C(=O)N[C@H](C(=O)Nc1n[nH]c(=S)s1)C(C)(C)C [Example 29, 1-[(1,1-dimethylethoxy)carbonyl]-L-prolyl-N-(4,5-dihydro-5-thioxo-1,3,4-thiadiazol-2-yl)-3-methyl-L-valinamide]
22 | 1.36 | O=C(CC(NC(=O)c1ccccc1)c1ccccc1)Nc1n[nH]c(=S)s1 (stereo not drawn) [Example 42, β-(benzoylamino)-N-(4,5-dihydro-5-thioxo-1,3,4-thiadiazol-2-yl)benzenepropanamide]
23 | 1.32 | O=C(NCC(Cc1ccccc1)C(=O)Nc1n[nH]c(=S)s1)OCc1ccccc1 (centres unmarked) [Example 39, [3-[(4,5-dihydro-5-thioxo-1,3,4-thiadiazol-2-yl)amino]-3-oxo-2-(phenylmethyl)propyl]carbamic acid phenylmethyl ester]
24 | 0.97 | O=C(CCc1ccccc1)N[C@@H](Cc1c(F)c(F)c(F)c(F)c1F)C(=O)Nc1n[nH]c(=S)s1 [Example 30, (S)-α-N-(4,5-dihydro-5-thioxo-1,3,4-thiadiazol-2-yl)-2,3,4,5,6-pentafluoro-[(1-oxo-3-phenylpropyl)amino]benzenepropanamide]
25 | 0.69 | O=C(CC(NC(=O)CCc1ccccc1)c1ccccc1)Nc1n[nH]c(=S)s1 (centres unmarked) [Example 44]
26 | 0.44 | O=C(CC(NC(=O)OCC1c2ccccc2-c2ccccc21)c1ccccc1)Nc1n[nH]c(=S)s1 (centres unmarked) [Example 46, [3-[(4,5-dihydro-5-thioxo-1,3,4-thiadiazol-2-yl)amino]-3-oxo-1-phenylpropyl]carbamic acid 9H-fluoren-9-yl methyl ester]
27 | 0.41 | CC(C)(C)[C@H](NC(=O)Cc1c[nH]c2ccccc12)C(=O)Nc1n[nH]c(=S)s1 [Example 32]
28 | 0.313 | O=C(CC(NC(=O)COc1ccccc1)c1ccccc1)Nc1n[nH]c(=S)s1 (stereo not drawn) [Example 48, N-(4,5-dihydro-5-thioxo-1,3,4-thiadiazol-2-yl)-β-[(phenoxyacetyl)amino]benzenepropanamide]
29 | 0.26 | O=C(C[C@@H](NC(=O)OCc1ccccc1)c1ccccc1)Nc1n[nH]c(=S)s1 [Example 52, (R)-[3-[(4,5-dihydro-5-thioxo-1,3,4-thiadiazol-2-yl)amino]-3-oxo-1-phenylpropyl]carbamic acid phenylmethyl ester]
